Patent publication US20240307477A1, “COMPOSITION FOR PREVENTING OR TREATING LIVER FIBROSIS INCLUDING SANGUISORBA OFFICINALIS EXTRACT AS ACTIVE INGREDIENT” (KOREA INSTITUTE OF SCIENCE AND TECHNOLOGY, priority 2023, published 2024)

System: human immortalization hepatic stellate cells (human LX-2)
Assay: RT-qPCR of liver fibrosis-related gene expression in TGF-β-treated hepatic stellate cells
Type: cell-based
Conditions: LX-2 cells, 5 ng/mL TGF-β, 24 hours; extract 1, 5 or 10 μg/mL, ziyuglycoside 5 μM; RT-qPCR vs GAPDH
Protocol: As hepatic stellate cells, human immortalization hepatic stellate cells (human LX-2) were given and used. The hepatic stellate cells were cultured in Dulbecco's modified Eagle's medium (DMEM; Invitrogen, US) containing 10% fetal bovine serum (FBS), penicillin (100 U/mL) and streptomycin ([…]) at 37° C. and in a 5% CO2 condition.
To measure the hepatic anti-fibrosis effect of the Sanguisorba officinalis extract (1, 5 or 10 μg/mL) and ziyuglycoside (5 μM) in the LX-2 cells, a real time-quantitative polymerase chain reaction (RT-qPCR) was performed.
First, the hepatic stellate cells were treated with each of the Sanguisorba officinalis extract (1, 5, or 10 μg/mL) and the ziyuglycoside (5 μM) along with 5 ng/mL of a liver fibrosis-inducing material TGF-β and cultured for 24 hours. Afterward, the cells were washed with PBS, total RNA was then extracted according to the manual of an RNA extraction kit (GeneAll RNA isolation kit, Korea), and cDNA was synthesized from the extracted RNA. PCR analysis was performed under user recommended cycling conditions of an analyzer (Applied Biosystems 7900 HT thermal cycler, Applied Biosystems), and to confirm the expression level of each mRNA, PCR was performed using the primers in Table 1 below, and the fold change value for the control was calculated using GAPDH as an endogenous control, and a relative expression level was compared.

| Molecule | ACTA2 gene expression increased by TGF-β treatment | COL1A1 gene expression increased by TGF-β treatment | TIMP1 gene expression increased by TGF-β treatment |
| --- | --- | --- | --- |
| C[C@@H]1CC[C@]2(C(=O)O)CC[C@]3(C)C(=CC[C@@H]4[C@@]5(C)CC[C@H](O[C@@H]6OC[C@H](O)[C@H](O)[C@H]6O)C(C)(C)[C@@H]5CC[C@]43C)[C@@H]2[C@]1(C)O [ziyuglycoside II] | inhibited | inhibited | inhibited |
| C[C@@H]1CC[C@]2(C(=O)O[C@@H]3O[C@H](CO)[C@@H](O)[C@H](O)[C@H]3O)CC[C@]3(C)C(=CC[C@@H]4[C@@]5(C)CC[C@H](O[C@@H]6OC[C@H](O)[C@H](O)[C@H]6O)C(C)(C)[C@@H]5CC[C@]43C)[C@@H]2[C@]1(C)O [ziyuglycoside I] | inhibited | inhibited | inhibited |
| ziyuglycoside | reduced | reduced | reduced |
